# Source: ChEMBL document CHEMBL6178017, “Intercepting the Downstream of the Estrogen Receptor Signaling Pathway: Discovery of a Potent and Efficient SRC-3 PROTAC Degrader for Overcoming Endocrine Resistance Breast Cancer” (J Med Chem, 2025)
# Active and inactive are the calls of the source. No cut-off for these calls is given here.
# Tests used:
# [1] = system: MCF7; assay: Antiproliferative activity against human MCF7 cells harboring ER-alpha Y537S mutant assessed as inhibition of cell growth by CCK8 assay; type: functional, cell-based
# [2] = target: T1, Protein cereblon/Nuclear receptor coactivator 3 (Homo sapiens, UniProt Q9Y6Q9+Q96SW2); assay: PROTAC activity at CRBN/SRC-3 in human MCF7 cells assessed as maximal induction of SRC-3 degradation at 1 uM incubated for 36 hrs by immunoblot analysis; type: cell-based
# T1 sequence (Q96SW2 whole entry partner): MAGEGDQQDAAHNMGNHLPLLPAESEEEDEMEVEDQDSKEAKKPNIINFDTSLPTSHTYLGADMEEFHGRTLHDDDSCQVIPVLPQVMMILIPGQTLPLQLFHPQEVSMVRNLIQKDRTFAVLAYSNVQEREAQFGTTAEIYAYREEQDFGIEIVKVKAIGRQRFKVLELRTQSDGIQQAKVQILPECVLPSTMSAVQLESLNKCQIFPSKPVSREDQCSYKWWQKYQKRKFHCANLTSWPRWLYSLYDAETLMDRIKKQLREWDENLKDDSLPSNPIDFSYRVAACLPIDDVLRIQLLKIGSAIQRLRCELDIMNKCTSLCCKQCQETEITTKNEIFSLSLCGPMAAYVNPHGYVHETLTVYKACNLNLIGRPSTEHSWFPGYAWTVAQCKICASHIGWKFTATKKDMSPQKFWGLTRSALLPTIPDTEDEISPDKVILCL
# T1 sequence (Q9Y6Q9 2-1424 limits assumed): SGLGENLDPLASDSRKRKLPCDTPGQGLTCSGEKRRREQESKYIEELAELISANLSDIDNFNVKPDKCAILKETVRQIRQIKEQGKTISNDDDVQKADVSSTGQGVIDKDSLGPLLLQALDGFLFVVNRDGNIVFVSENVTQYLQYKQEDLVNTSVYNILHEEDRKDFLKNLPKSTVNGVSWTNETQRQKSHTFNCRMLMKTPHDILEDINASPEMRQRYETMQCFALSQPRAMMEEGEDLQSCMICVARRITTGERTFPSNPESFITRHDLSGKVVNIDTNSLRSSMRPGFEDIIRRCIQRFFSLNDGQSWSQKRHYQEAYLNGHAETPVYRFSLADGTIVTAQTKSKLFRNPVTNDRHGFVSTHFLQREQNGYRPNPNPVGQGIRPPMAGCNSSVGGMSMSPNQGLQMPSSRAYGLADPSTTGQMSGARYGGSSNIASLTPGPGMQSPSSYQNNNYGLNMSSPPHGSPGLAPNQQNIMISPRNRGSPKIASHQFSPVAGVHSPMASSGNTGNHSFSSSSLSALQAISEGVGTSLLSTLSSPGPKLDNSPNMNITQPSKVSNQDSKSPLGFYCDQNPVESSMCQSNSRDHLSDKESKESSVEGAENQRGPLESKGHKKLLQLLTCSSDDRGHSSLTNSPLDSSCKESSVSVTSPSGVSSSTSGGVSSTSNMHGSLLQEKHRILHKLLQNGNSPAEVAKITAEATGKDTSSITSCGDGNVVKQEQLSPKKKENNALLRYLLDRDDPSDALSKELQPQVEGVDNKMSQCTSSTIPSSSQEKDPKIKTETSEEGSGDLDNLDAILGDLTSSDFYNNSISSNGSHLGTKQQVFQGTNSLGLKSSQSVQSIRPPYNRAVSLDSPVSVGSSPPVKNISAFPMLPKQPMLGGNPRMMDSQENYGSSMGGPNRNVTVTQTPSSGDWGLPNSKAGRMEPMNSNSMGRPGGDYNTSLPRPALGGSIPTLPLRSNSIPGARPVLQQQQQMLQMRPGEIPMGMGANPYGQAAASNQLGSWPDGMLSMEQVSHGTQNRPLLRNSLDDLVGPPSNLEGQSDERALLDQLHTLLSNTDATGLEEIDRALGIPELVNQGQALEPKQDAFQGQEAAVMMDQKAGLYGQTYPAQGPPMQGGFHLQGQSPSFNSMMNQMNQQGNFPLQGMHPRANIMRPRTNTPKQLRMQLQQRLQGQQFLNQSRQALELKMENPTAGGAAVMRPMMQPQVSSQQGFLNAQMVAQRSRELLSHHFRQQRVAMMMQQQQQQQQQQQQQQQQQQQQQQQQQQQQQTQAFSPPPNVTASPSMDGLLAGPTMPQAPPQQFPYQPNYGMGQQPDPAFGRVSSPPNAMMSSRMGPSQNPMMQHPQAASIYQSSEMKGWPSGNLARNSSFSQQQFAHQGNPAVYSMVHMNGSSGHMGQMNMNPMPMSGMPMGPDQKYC
# [3] = target: T1, Protein cereblon/Nuclear receptor coactivator 3; assay: PROTAC activity at CRBN/SRC-3 in human MCF7 cells assessed as induction of SRC-3 degradation at 0.1 uM incubated for 36 hrs by immunoblot analysis; type: cell-based
# [4] = target: Cereblon/Casein kinase I alpha (Homo sapiens) (UniProt P48729+Q96SW2); assay: PROTAC activity at CRBN/CK-1 alpha in tamoxifen-resistant human LCC2 cells assessed as degradation of CK-1alpha at 10 uM measured after 36 hrs by diaPASEF-based quantitative proteomics analysis; settings: Tamoxifen-resistant LCC2 cell
# Cereblon/Casein kinase I alpha (Homo sapiens), sequence (P48729 2-337 limits assumed): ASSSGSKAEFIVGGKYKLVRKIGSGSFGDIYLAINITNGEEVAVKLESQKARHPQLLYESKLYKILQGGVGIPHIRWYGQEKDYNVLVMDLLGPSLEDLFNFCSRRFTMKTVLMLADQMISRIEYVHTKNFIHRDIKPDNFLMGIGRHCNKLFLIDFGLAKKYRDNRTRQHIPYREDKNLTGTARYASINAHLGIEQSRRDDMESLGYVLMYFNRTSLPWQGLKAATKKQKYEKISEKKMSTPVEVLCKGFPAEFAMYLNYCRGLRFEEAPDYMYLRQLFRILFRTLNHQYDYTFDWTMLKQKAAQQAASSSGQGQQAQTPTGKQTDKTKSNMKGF
# Cereblon/Casein kinase I alpha (Homo sapiens), sequence (Q96SW2 whole entry partner): as the sequence (Q96SW2 whole entry partner) above
# [5] = target: T1, Protein cereblon/Nuclear receptor coactivator 3; assay: PROTAC activity at CRBN/SRC-3 in human MCF7 cells overexpressing EGFR assessed as induction of SRC-3 degradation measured after 36 hrs by immunoblot analysis; type: cell-based; settings: dose 0.01-10 µM
# [6] = target: T1, Protein cereblon/Nuclear receptor coactivator 3; assay: PROTAC activity at CRBN/SRC-3 in human MCF7 cells harboring ER-alpha D538G mutant assessed as downregulation of ER-alpha level at 0.01 to 10 uM measured after 36 hrs by immunoblot analysis; type: cell-based; settings: dose 0.01-10 µM
# [7] = target: T1, Protein cereblon/Nuclear receptor coactivator 3; assay: PROTAC activity at CRBN/SRC-3 in tamoxifen-resistant human LCC2 cells assessed as induction of SRC-3 degradation at 1 uM preincubated with proteasome inhibitor, MG-132 for 2 hrs followed by incubation with compound and measured after 36 hrs by immunoblot analysis; type: cell-based; settings: Tamoxifen-resistant LCC2 cell
# [8] = target: T1, Protein cereblon/Nuclear receptor coactivator 3; assay: PROTAC activity at CRBN/SRC-3 in tamoxifen-resistant human LCC2 cells assessed as induction of SRC-3 degradation at 1 uM preincubated with proteasome inhibitor, bortezomib for 2 hrs followed by incubation with compound and measured after 36 hrs by immunoblot analysis; type: cell-based; settings: Tamoxifen-resistant LCC2 cell
# [9] = target: T1, Protein cereblon/Nuclear receptor coactivator 3; assay: PROTAC activity at CRBN/SRC-3 in tamoxifen-resistant human LCC2 cells assessed as induction of SRC-3 degradation at 1 uM preincubated with autophagy inhibitor, choloroquine for 2 hrs followed by incubation with compound and measured after 36 hrs by immunoblot analysis; type: cell-based; settings: Tamoxifen-resistant LCC2 cell
# [10] = target: Nuclear receptor coactivator 3 (Homo sapiens) (UniProt Q9Y6Q9); assay: Binding affinity to SRC-3 in human MCF7 cells assessed as increase in thermal stability of the protein at 1 uM incubated for 6 hrs followed by exposure to higher temperatures for 5 mins by CETSA analysis; type: cell-based; settings: time 365.0 min
# Nuclear receptor coactivator 3 (Homo sapiens), sequence (Q9Y6Q9 2-1424 limits assumed): as the sequence (Q9Y6Q9 2-1424 limits assumed) above
# [11] = system: Tamoxifen-resistant LCC2 cell; assay: Upregulation of SRC3 mRNA expression in tamoxifen-resistant human LCC2 cells at 0.01 to 10 uM incubated for 36 hrs by qRT-PCR analysis; type: functional, cell-based; settings: dose 0.01-10 µM
# [12] = system: MCF7; assay: Induction of apoptosis in human MCF7 cells assessed as increase in early apoptotic cells at 1 to 20 uM incubated for 48 hrs by AnnexinV-FITC/PI staining based flow cytometry; type: functional, cell-based; settings: dose 1-20 µM
# [13] = system: MCF7; assay: Induction of apoptosis in human MCF7 cells assessed as maximal increase in early apoptotic cells at 10 uM incubated for 48 hrs by AnnexinV-FITC/PI staining based flow cytometry; type: functional
# [14] = Induction of apoptosis in tamoxifen-resistant human LCC2 cells assessed as late apoptotic cells at 20 uM incubated for 48 hrs by AnnexinV-FITC/PI staining based flow cytometry (reference value: 4.83%); type: functional, Tamoxifen-resistant LCC2 cell
# [15] = Induction of apoptosis in tamoxifen-resistant human LCC2 cells assessed as early apoptotic cells at 10 uM incubated for 48 hrs by AnnexinV-FITC/PI staining based flow cytometry (reference value: 5.92%); type: functional, Tamoxifen-resistant LCC2 cell
# [16] = Induction of apoptosis in tamoxifen-resistant human LCC2 cells assessed as necrotic cells at 10 uM incubated for 48 hrs by AnnexinV-FITC/PI staining based flow cytometry (reference value: 1.16%); type: functional, Tamoxifen-resistant LCC2 cell
# [17] = Induction of apoptosis in tamoxifen-resistant human LCC2 cells assessed as viable cells at 5 uM incubated for 48 hrs by AnnexinV-FITC/PI staining based flow cytometry (reference value: 88.09%); type: functional; settings: Tamoxifen-resistant LCC2 cell, read-out: Activity
# [18] = Induction of apoptosis in tamoxifen-resistant human LCC2 cells assessed as necrotic cells at 1 uM incubated for 48 hrs by AnnexinV-FITC/PI staining based flow cytometry (reference value: 1.16%); type: functional, Tamoxifen-resistant LCC2 cell
# [19] = system: MCF7; assay: Induction of cell cycle arrest in human MCF7 cells assessed as accumulation of cells at G1 phase at 5 to 20 uM incubated for 48 hrs by propidium iodide staining based flow cytometry; type: functional; settings: dose 5-20 µM
# [20] = Induction of cell cycle arrest in tamoxifen-resistant human LCC2 cells assessed as accumulation of cells at G2/M phase at 20 uM incubated for 48 hrs by propidium iodide staining based flow cytometry (reference value: 11.42%); type: functional
# [21] = Induction of cell cycle arrest in tamoxifen-resistant human LCC2 cells assessed as accumulation of cells at G1 phase at 10 uM incubated for 48 hrs by propidium iodide staining based flow cytometry (reference value: 78.71%); type: functional
# [22] = Induction of cell cycle arrest in tamoxifen-resistant human LCC2 cells assessed as accumulation of cells at G2/M phase at 10 uM incubated for 48 hrs by propidium iodide staining based flow cytometry (reference value: 11.42%); type: functional
# [23] = Induction of cell cycle arrest in tamoxifen-resistant human LCC2 cells assessed as accumulation of cells at G1 phase at 5 uM incubated for 48 hrs by propidium iodide staining based flow cytometry (reference value: 78.71%); type: functional
# [24] = Induction of cell cycle arrest in tamoxifen-resistant human LCC2 cells assessed as accumulation of cells at G2/M phase at 5 uM incubated for 48 hrs by propidium iodide staining based flow cytometry (reference value: 11.42%); type: functional
# [25] = Half life of the compound in human plasma by LC-MS/MS analysis; type: ADME, cell-free
# [26] = Volume of distribution at steady state in Balb/c mouse at 2 mg/kg, iv by LC-MS/MS analysis; type: ADME, organism-based; settings: in vivo, read-out: Vdss
# [27] = AUC (0 to infinity) in Balb/c mouse at 4 mg/kg, ip by LC-MS/MS analysis; type: ADME, organism-based; settings: in vivo
# [28] = Tmax in Balb/c mouse at 20 mg/kg, po by LC-MS/MS analysis; type: ADME, organism-based; settings: in vivo
# [29] = Antitumor activity against tamoxifen-resistant human LCC2 cells xenografted in Balb/c mouse assessed as inhibition of tumor growth at 5 uM/Kg, ip administered once every 2 days for 23 days; type: functional, Tamoxifen-resistant LCC2 cell; settings: time 23 day, at 5 µmol/kg
# [30] = Toxicity against Balb/c mouse xenografted with tamoxifen-resistant human LCC2 cells assessed as effect on body weight at 3 to 5 uM/Kg, ip administered once every 2 days for 23 days; type: organism-based; settings: in vivo, 552 h, dose 3-5 µM/Kg, time 23 day
# [31] = Toxicity against Balb/c mouse xenografted with tamoxifen-resistant human LCC2 cells assessed as effect on body weight at 10 uM/Kg, ip administered once every 2 days for 23 days; type: organism-based; settings: in vivo, 552 h, time 23 day
# [32] = target: Voltage-gated inwardly rectifying potassium channel KCNH2 (Homo sapiens, UniProt Q12809)
# Voltage-gated inwardly rectifying potassium channel KCNH2, sequence (Q12809 whole entry): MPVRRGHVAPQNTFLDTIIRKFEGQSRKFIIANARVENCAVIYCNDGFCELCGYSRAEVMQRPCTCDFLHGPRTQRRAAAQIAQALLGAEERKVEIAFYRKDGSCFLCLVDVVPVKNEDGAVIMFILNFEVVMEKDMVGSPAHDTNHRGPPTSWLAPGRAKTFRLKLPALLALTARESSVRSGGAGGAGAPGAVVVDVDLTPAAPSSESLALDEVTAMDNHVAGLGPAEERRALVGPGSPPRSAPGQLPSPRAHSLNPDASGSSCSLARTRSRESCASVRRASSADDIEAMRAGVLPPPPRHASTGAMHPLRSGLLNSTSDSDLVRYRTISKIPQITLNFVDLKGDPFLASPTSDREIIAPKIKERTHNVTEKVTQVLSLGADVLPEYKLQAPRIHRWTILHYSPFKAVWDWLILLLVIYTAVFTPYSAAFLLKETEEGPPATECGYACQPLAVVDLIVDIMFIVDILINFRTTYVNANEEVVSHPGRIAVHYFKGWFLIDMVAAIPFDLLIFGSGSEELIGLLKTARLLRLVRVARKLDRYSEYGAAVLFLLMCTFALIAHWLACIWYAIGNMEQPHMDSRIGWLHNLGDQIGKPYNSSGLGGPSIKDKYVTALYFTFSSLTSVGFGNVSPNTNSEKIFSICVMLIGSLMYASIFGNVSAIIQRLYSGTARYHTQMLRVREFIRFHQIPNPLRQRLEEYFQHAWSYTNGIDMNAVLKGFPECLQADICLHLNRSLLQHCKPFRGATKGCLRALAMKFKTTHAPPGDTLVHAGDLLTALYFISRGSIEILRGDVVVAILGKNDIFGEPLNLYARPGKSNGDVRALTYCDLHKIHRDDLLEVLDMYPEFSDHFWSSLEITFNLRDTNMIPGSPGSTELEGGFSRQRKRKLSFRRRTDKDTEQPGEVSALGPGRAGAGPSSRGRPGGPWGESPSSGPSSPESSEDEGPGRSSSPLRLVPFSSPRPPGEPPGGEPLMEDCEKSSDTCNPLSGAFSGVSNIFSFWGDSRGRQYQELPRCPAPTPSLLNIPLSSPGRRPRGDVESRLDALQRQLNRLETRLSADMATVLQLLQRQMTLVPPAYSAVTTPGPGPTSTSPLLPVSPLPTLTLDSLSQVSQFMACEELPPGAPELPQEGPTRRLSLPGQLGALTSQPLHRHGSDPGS
smiles,measurement,setting,value
C/C(=N\Nc1nc2ccccc2n1C1CN(C2CCN(c3cccc4c3C(=O)N(C3CCC(=O)NC3=O)C4=O)CC2)C1)c1ccccn1 (configuration not stated),IC50,[1],3 nM
same,Activity,[2],Active
same,Activity,[3],Active
same,Activity,[4],inactive
same,Activity,[5],Dose-dependent-effect
same,Activity,[6],Active
same,Activity,[7],inactive
same,Activity,[8],inactive
same,Activity,[9],Active
same,Activity,[10],Active
same,Activity,[11],Active
same,Activity,[12],Active
same,Activity,[13],~35%
same,Activity,[14],14.47%
same,Activity,[15],24.23%
same,Activity,[16],6.62%
same,viability at 5 µM,[17],54.6%
same,Activity,[18],9.63%
same,Activity,[19],Active
same,Activity,[20],3.71%
same,Activity,[21],85.01%
same,Activity,[22],3.83%
same,Activity,[23],81.41%
same,Activity,[24],4.62%
same,half-life,[25],35.6 h
same,Vd,[26],29.1 L/kg
same,AUC(0-inf),[27],55.2 ng·h/mL
same,Tmax,[28],0.33 h
same,TGI,[29],54%
same,Activity,[30],Non-toxic
same,Activity,[31],Non-toxic
same,IC50,[32],1100 nM
